Reference: PubChem BioAssay AID330 (DTP/NCI, 2004)
Values joined by “and” are separate entries in the source; they are usually repeats but may differ in a detail not shown here. Equal values may be shown once. Inconclusive results and toxic doses are left out.

Tested on: P388 leukemia ip, CD2F1 mice, survival T/C
Assay: NCI In Vivo Anticancer Drug Screen. Data for tumor model P388 Leukemia (intraperitoneal) in CD2F1 (CDF1) mice
Conditions: endpoint: median survival time, higher = longer survival
In short: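 Mice carrying the transplanted tumor received test compound or vehicle. Survival was recorded in each group, and the value is the treated-group measurement divided by that of the vehicle-treated control group.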

[1] = dose: 50.0 mg/kg/injection, schedule: Q01DX005 (ip), vehicle: saline with Tween-80
[2] = dose: 100.0 mg/kg/injection, schedule: Q01DX005 (ip), vehicle: saline with Tween-80
[3] = dose: 200.0 mg/kg/injection, schedule: Q01DX005 (ip), vehicle: saline with Tween-80
[4] = dose: 50.0 mg/kg/injection, schedule: Q01DX009 (ip), vehicle: saline with Tween-80
[5] = dose: 100.0 mg/kg/injection, schedule: Q01DX009 (ip), vehicle: saline with Tween-80
[6] = dose: 200.0 mg/kg/injection, schedule: Q01DX009 (ip), vehicle: saline with Tween-80
[7] = dose: 60.0 mg/kg/injection, schedule: Q01DX005 (ip), vehicle: Klucel (hydroxypropylcellulose) (HPC)
[8] = dose: 120.0 mg/kg/injection, schedule: Q01DX005 (ip), vehicle: Klucel (hydroxypropylcellulose) (HPC)
[9] = dose: 240.0 mg/kg/injection, schedule: Q01DX005 (ip), vehicle: Klucel (hydroxypropylcellulose) (HPC)

For CCOc1ccc(C(C)c2cc3c(cc2OCC)OCO3)cc1C (stereo not drawn), the T/C (dose: 25.0 mg/kg/injection, schedule: Q01DX005 (ip), vehicle: Klucel (hydroxypropylcellulose) (HPC)) was 94 % of control, the T/C (dose: 50.0 mg/kg/injection, schedule: Q01DX005 (ip), vehicle: Klucel (hydroxypropylcellulose) (HPC)) was 110 % of control and 116 % of control and 97 % of control and the T/C (dose: 100.0 mg/kg/injection, schedule: Q01DX005 (ip), vehicle: Klucel (hydroxypropylcellulose) (HPC)) was 101 % of control and 119 % of control. The T/C (dose: 200.0 mg/kg/injection, schedule: Q01DX005 (ip), vehicle: Klucel (hydroxypropylcellulose) (HPC)) was 114 % of control.
O=c1[nH]cnc2ccc3cn[nH]c3c12 was tested, and the T/C [1] was 100 % of control, the T/C [2] was 105 % of control and the T/C [3] was 106 % of control.
In the case of COc1ccc([Si](C)(C)CNCCSS(=O)(=O)O)cc1, the T/C [4] is reported as 90 % of control, the T/C [5] is reported as 95 % of control and the T/C [6] is reported as 90 % of control.
For NS(=O)(=O)c1cc([N+](=O)[O-])c(SSc2sc(S(N)(=O)=O)cc2[N+](=O)[O-])s1, the T/C (dose: 25.0 mg/kg/injection, schedule: Q04DX003 (ip), vehicle: Klucel (hydroxypropylcellulose) (HPC)) was 104 % of control, the T/C (dose: 50.0 mg/kg/injection, schedule: Q04DX003 (ip), vehicle: Klucel (hydroxypropylcellulose) (HPC)) was 101 % of control and the T/C (dose: 100.0 mg/kg/injection, schedule: Q01DX001 (ip), vehicle: Klucel (hydroxypropylcellulose) (HPC)) was 106 % of control. The T/C (dose: 100.0 mg/kg/injection, schedule: Q04DX003 (ip), vehicle: Klucel (hydroxypropylcellulose) (HPC)) was 107 % of control and the T/C (dose: 200.0 mg/kg/injection, schedule: Q01DX001 (ip), vehicle: Klucel (hydroxypropylcellulose) (HPC)) was 99 % of control.
With O=c1[nH]c(=O)c2ncn(C3OC(CO)C(O)C3O)c2[nH]1.O=c1[nH]c(=O)c2ncn(C3OC(CO)C(O)C3O)c2[nH]1.[NH2-].[NH2-].[Pt+2] (stereo not drawn) the T/C (dose: 6.25 mg/kg/injection, schedule: Q01DX009 (ip), vehicle: saline) was 105 % of control, the T/C (dose: 12.5 mg/kg/injection, schedule: Q01DX009 (ip), vehicle: saline) was 110 % of control and 102 % of control and the T/C (dose: 25.0 mg/kg/injection, schedule: Q01DX009 (ip), vehicle: saline) was 92 % of control and 107 % of control. The T/C (dose: 50.0 mg/kg/injection, schedule: Q01DX009 (ip), vehicle: saline) was 100 % of control and 107 % of control, the T/C (dose: 50.0 mg/kg/injection, schedule: Q04DX003 (ip), vehicle: suspension in saline) was 105 % of control and the T/C (dose: 100.0 mg/kg/injection, schedule: Q01DX009 (ip), vehicle: saline) was 96 % of control and 116 % of control. The T/C (dose: 100.0 mg/kg/injection, schedule: Q04DX003 (ip), vehicle: suspension in saline) was 110 % of control, the T/C (dose: 200.0 mg/kg/injection, schedule: Q04DX003 (ip), vehicle: suspension in saline) was 120 % of control and the T/C (dose: 400.0 mg/kg/injection, schedule: Q04DX003 (ip), vehicle: water) was 174 % of control.
With CC1(C)CC(=O)C=C(OCCc2ccccc2)C1 the T/C (dose: 100.0 mg/kg/injection, schedule: Q04DX003 (ip), vehicle: saline with Tween-80) was 100 % of control, the T/C (dose: 200.0 mg/kg/injection, schedule: Q04DX003 (ip), vehicle: saline with Tween-80) was 100 % of control and the T/C (dose: 400.0 mg/kg/injection, schedule: Q04DX003 (ip), vehicle: saline with Tween-80) was 95 % of control.
In the case of Nc1ccc2c(C(F)(F)F)cc(=O)[nH]c2c1, the T/C (dose: 25.0 mg/kg/injection, schedule: Q01DX005 (ip), vehicle: saline with Tween-80) is reported as 100 % of control, the T/C [1] is reported as 91 % of control and the T/C [2] is reported as 92 % of control.
With COC(=O)/C=C/C=C/c1ccco1 the T/C [4] was 99 % of control, the T/C [5] was 87 % of control and the T/C [6] was 89 % of control.
In the case of CCN(CC)CCC(CNc1c(C)cnc2cc(Cl)ccc12)c1ccc(OC)cc1 (stereo not drawn), the T/C [1] is reported as 105 % of control, the T/C [2] is reported as 105 % of control and the T/C [3] is reported as 105 % of control.
For COc1nc(Nc2ccccc2SC)nc(OC)n1, the T/C [1] was 104 % of control, the T/C [2] was 106 % of control and the T/C [3] was 107 % of control.
CC(C)OC(CCC#N)c1ccc(Cl)cc1 (stereo not drawn) was tested, and the T/C (dose: 50.0 mg/kg/injection, schedule: Q04DX003 (ip), vehicle: other) was 105 % of control, the T/C (dose: 100.0 mg/kg/injection, schedule: Q04DX003 (ip), vehicle: other) was 114 % of control and the T/C (dose: 200.0 mg/kg/injection, schedule: Q04DX003 (ip), vehicle: other) was 99 % of control.
With O=c1oc2ccccc2c2c1SC(c1ccncc1)C2 (stereo not drawn) the T/C [7] was 91 % of control, the T/C [8] was 88 % of control and the T/C [9] was 91 % of control.
CC1(C)C2=CC3(C)N(CN2c2ccccc21)c1ccccc1C3(C)C (stereo not drawn) was tested, and the T/C [7] was 92 % of control, the T/C [8] was 95 % of control and the T/C [9] was 95 % of control.
